In patent publication US20260152487A1 (Sitryx Therapeutics Limited, priority 2021, published 2026):

Target: T1, recombinant human PKM2 (Homo sapiens, UniProt P14618)
T1 construct: His (N); purchased R&D Systems
Assay: Human PKM2 activation assay (Kinase-Glo Plus luminescent detection of generated ATP)
Format: biochemical
Details: for hPKM2 Emax / Emax: percentage activation normalised to DMSO vehicle (LOW) and 5 μM TEPP-46 (HIGH); for EC50: recombinant human PKM2 activation, 4-parameter logistic fit, read-out: hPKM2 EC50; for Emax: read-out: hPKM2 Emax
Experimental: Compound activation of recombinant human PKM2 pyruvate kinase activity was determined by biochemical assay. N-terminal His-tagged hPKM2 was sourced from R&D Systems and its substrates phosphoenolpyruvate (PEP) and ADP from Sigma-Aldrich and 2Bscientific Ltd, respectively. The Kinase-Glo® Plus luminescence assay was from Promega. All other reagents were from Sigma-Aldrich. Test Compounds were prepared as 10 mM DMSO stocks and dilution series prepared in DMSO for direct dilution into Assay Buffer comprising 50 mM imidazole, 50 mM KCl, 7 mM MgCl2, 0.01% Tween20, 0.05% BSA (pH 7.2).
Human PKM2 was diluted into Assay Buffer comprising 50 mM imidazole, 50 mM KCl, 7 mM MgCl2, 0.01% Tween20, 0.05% BSA (pH 7.2) to a final concentration of […]. Enzyme-Assay Buffer mix was dispensed into a 384-well shallow-well white-walled plate (PerkinElmer) and Test Compounds added by acoustic dispense (Echo®, Labcyte Inc.).
After 60 minutes' incubation on an orbital shaker (300 rpm, 26° C.), enzyme activity was quantified by the luminescent detection of generated ATP. Kinase-Glo® Plus reagent was added to each well and the plates incubated for a further 15 minutes on an orbital shaker in the dark (300 rpm, 26° C.) before luminescence measurement on a plate reader (PHERAstar® FSX, BMG Labtech).
Percentage activation was calculated by normalising […] signals to plate LOW (DMSO vehicle) and HIGH (5 μM TEPP-46) controls. EC50 and Emax values were determined from 4-parameter logistic fits of compound concentration-response curves.

T1 sequence (P14618 2-531 limits assumed): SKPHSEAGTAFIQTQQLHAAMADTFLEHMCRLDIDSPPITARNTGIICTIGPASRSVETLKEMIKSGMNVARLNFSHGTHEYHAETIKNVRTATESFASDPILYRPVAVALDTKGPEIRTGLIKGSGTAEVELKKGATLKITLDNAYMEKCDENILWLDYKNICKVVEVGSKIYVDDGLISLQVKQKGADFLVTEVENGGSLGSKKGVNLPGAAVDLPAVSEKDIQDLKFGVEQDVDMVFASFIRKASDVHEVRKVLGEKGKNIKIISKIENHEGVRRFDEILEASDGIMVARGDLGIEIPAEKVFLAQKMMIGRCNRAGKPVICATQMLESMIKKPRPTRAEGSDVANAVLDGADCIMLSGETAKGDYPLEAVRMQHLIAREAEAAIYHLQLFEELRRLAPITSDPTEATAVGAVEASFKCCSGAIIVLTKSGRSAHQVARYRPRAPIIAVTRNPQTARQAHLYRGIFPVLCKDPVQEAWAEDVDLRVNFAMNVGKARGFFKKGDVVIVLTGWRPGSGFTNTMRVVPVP

| EC50 | Emax | Compound | hPKM2 Emax |
| --- | --- | --- | --- |
| 43.3 nM | 68.3% | COc1ccc(Cn2ncc3cc(S(=N)(=O)c4ccc5c(c4)CCO5)ccc3c2=O)cn1 (racemic) [Example 127, 6-(2,3-dihydrobenzofuran-5-sulfonimidoyl)-2-((6-methoxypyridin-3-yl)methyl)phthalazin-1(2H)-one] | – |
| 88.1 nM | 102% | COc1ccc(Cn2ncc3cc(S(=N)(=O)c4ccc(OC(F)F)cc4)ccc3c2=O)cn1 (racemic) [Example 134, 6-(4-(difluoromethoxy)phenylsulfonimidoyl)-2-((6-methoxypyridin-3-yl)methyl)phthalazin-1(2H)-one] | – |
| 129 nM | 81.9% | COc1ccc(S(=N)(=O)c2ccc3c(=O)n(Cc4ccc(OC)nc4)ncc3c2)cc1 (racemic) [Example 137, 6-(4-methoxyphenylsulfonimidoyl)-2-((6-methoxypyridin-3-yl)methyl)phthalazin-1(2H)-one] | – |
| 289 nM | 95.1% | COc1ccc(Cn2ncc3cc([S@](=N)(=O)c4ccccc4)ccc3c2=O)cn1 (single isomer, unassigned) [Example 132] | – |
| 444 nM | 77.3% | COc1ccc(Cn2ncc3cc([S@@](=N)(=O)c4ccccc4)ccc3c2=O)cn1 (single isomer, unassigned) [Example 133] | – |
| 111 nM | 79.9% | COc1ccc(Cn2ncc3cc([S@](=N)(=O)c4ccc(OC(F)F)cc4)ccc3c2=O)cn1 (single isomer, unassigned) [Example 135] | – |
| 46.5 nM | 97.2% | COc1ccc(Cn2ncc3cc([S@@](=N)(=O)c4ccc(OC(F)F)cc4)ccc3c2=O)cn1 (single isomer, unassigned) [Example 136] | – |
| 129 nM | – | COc1ccc([S@](=N)(=O)c2ccc3c(=O)n(Cc4ccc(OC)nc4)ncc3c2)cc1 (single isomer, unassigned) [Example 139] | 81.9% |
| 434 nM | 78.6% | C[C@H](O)c1cccc(Cn2ncc3cc(S(=O)(=O)c4cnn(C)c4)ccc3c2=O)n1 (single isomer, unassigned) [Example 278] | – |
| 277 nM | 88.7% | C[C@@H](O)c1cccc(Cn2ncc3cc(S(=O)(=O)c4cnn(C)c4)ccc3c2=O)n1 (single isomer, unassigned) [Example 279] | – |
| 111 nM | 92.2% | Cc1cccc(Cn2ncc3cc(S(=O)(=O)c4csc([C@@H](C)O)n4)ccc3c2=O)n1 (single isomer, unassigned) [Example 296] | – |
| 103 nM | 94.7% | Cc1cccc(Cn2ncc3cc(S(=O)(=O)c4csc([C@H](C)O)n4)ccc3c2=O)n1 (single isomer, unassigned) [Example 297] | – |
| 128 nM | 105% | N=[S@](=O)(c1cn[nH]c1)c1ccc2c(=O)n(Cc3ccc4c(n3)CCO4)ncc2c1 (stereo in doubt) [Example 363] | – |
| 35 nM | 114% | N=[S@@](=O)(c1cn[nH]c1)c1ccc2c(=O)n(Cc3ccc4c(n3)CCO4)ncc2c1 (stereo in doubt) [Example 364] | – |
| 566 nM | 92.6% | COc1ccc(S(=O)(=O)c2ccc3c(=O)n(Cc4ccnc(O)c4)ncc3c2)cc1 [Example 3, 2-((2-hydroxypyridin-4-yl)methyl)-6-((4-methoxyphenyl)sulfonyl)phthalazin-1(2H)-one] | – |
| 147 nM | 95.5% | COc1ccc(Cn2ncc3cc(S(=O)(=O)c4ccccc4)ccc3c2=O)c(C(N)=O)n1 [Example 14, 6-methoxy-3-((1-oxo-6-(phenylsulfonyl)phthalazin-2(1H)-yl)methyl)picolinamide] | – |
| 841 nM | 98.5% | N#Cc1c[nH]nc1Cn1ncc2cc(S(=O)(=O)c3ccccc3)ccc2c1=O [Example 18, 3-((1-oxo-6-(phenylsulfonyl)phthalazin-2(1H)-yl)methyl)-1H-pyrazole-4-carbonitrile] | – |

| EC50 | Emax | Compound | hPKM2 Emax |
| --- | --- | --- | --- |
| 102 nM | 86.1% | O=c1c2ccc(S(=O)(=O)c3ccccc3)cc2cnn1Cc1ccsc1CO [Example 22, 2-((2-(hydroxymethyl)thiophen-3-yl)methyl)-6-(phenylsulfonyl)phthalazin-1(2H)-one] | – |
| 265 nM | 112% | N#Cc1sccc1Cn1ncc2cc(S(=O)(=O)c3ccccc3)ccc2c1=O [Example 23, 3-((1-oxo-6-(phenylsulfonyl)phthalazin-2(1H)-yl)methyl)thiophene-2-carbonitrile] | – |
| 198 nM | 126% | O=c1c2ccc(S(=O)(=O)c3ccccc3)cc2cnn1Cc1cc(C2CC2)[nH]n1 [Example 25, 2-((5-cyclopropyl-1H-pyrazol-3-yl)methyl)-6-(phenylsulfonyl)phthalazin-1(2H)-one] | – |
| 838 nM | 106% | O=c1c2ccc(S(=O)(=O)c3ccccc3)cc2cnn1Cc1n[nH]cc1CO [Example 26, 2-((4-(hydroxymethyl)-1H-pyrazol-3-yl)methyl)-6-(phenylsulfonyl)phthalazin-1(2H)-one] | – |
| 70 nM | 122% | O=c1c2ccc(S(=O)(=O)c3ccccc3)cc2cnn1Cc1cc2n(n1)CCO2 [Example 27, 2-((2,3-dihydropyrazolo[5,1-b]oxazol-6-yl)methyl)-6-(phenylsulfonyl)phthalazin-1(2H)-one] | – |
| 162 nM | 103% | O=c1c2ccc(S(=O)(=O)c3ccccc3)cc2cnn1Cc1ccn(C(F)F)n1 [Example 28, 2-((1-(difluoromethyl)-1H-pyrazol-3-yl)methyl)-6-(phenylsulfonyl)phthalazin-1(2H)-one] | – |
| 122 nM | 98.2% | COc1ccc(Cn2ncc3cc(S(=O)(=O)c4ccccc4)ccc3c2=O)cc1 [Example 49, 2-(4-methoxybenzyl)-6-(phenylsulfonyl)phthalazin-1(2H)-one] | – |
| 1170 nM | 75.5% | CC(c1cccnc1)n1ncc2cc(S(=O)(=O)c3ccccc3)ccc2c1=O (stereo not drawn) [Example 69, 6-(phenylsulfonyl)-2-(1-(pyridin-3-yl)ethyl)phthalazin-1(2H)-one] | – |
| 799 nM | 93.2% | Cc1cc(Cn2ncc3cc(S(=O)(=O)c4ccccc4)ccc3c2=O)no1 [Example 80, 2-((5-methylisoxazol-3-yl)methyl)-6-(phenylsulfonyl)phthalazin-1(2H)-one] | – |
| 466 nM | 78.1% | CCn1nccc1Cn1ncc2cc(S(=O)(=O)c3ccccc3)ccc2c1=O [Example 83, 2-((1-ethyl-1H-pyrazol-5-yl)methyl)-6-(phenylsulfonyl)phthalazin-1(2H)-one] | – |
| 115 nM | 93.1% | NC(=O)c1cccc(Cn2ncc3cc(S(=O)(=O)c4ccccc4)ccc3c2=O)c1 [Example 84, 3-((1-oxo-6-(phenylsulfonyl)phthalazin-2(1H)-yl)methyl)benzamide] | – |
| 71.5 nM | 113% | NC(=O)c1occc1Cn1ncc2cc(S(=O)(=O)c3ccccc3)ccc2c1=O [Example 85, 3-((1-oxo-6-(phenylsulfonyl)phthalazin-2(1H)-yl)methyl)furan-2-carboxamide] | – |
| 765 nM | 92.2% | NC(=O)c1ccc(Cn2ncc3cc(S(=O)(=O)c4ccccc4)ccc3c2=O)o1 [Example 86, 5-((1-oxo-6-(phenylsulfonyl)phthalazin-2(1H)-yl)methyl)furan −2-carboxamide] | – |
| 475 nM | 85.8% | COc1cnc(Cn2ncc3cc(S(=O)(=O)c4ccccc4)ccc3c2=O)cn1 [Example 87, 2-((5-methoxypyrazin-2-yl)methyl)-6-(phenylsulfonyl)phthalazin-1(2H)-one] | – |
| 618 nM | 93.2% | COc1ncccc1Cn1ncc2cc(S(=O)(=O)c3ccccc3)ccc2c1=O [Example 88, 2-((2-methoxypyridin-3-yl)methyl)-6-(phenylsulfonyl)phthalazin-1(2H)-one] | – |
| 554 nM | 89.9% | NC(=O)c1c(Cl)cccc1Cn1ncc2cc(S(=O)(=O)c3ccccc3)ccc2c1=O [Example 91, 2-chloro-6-((1-oxo-6-(phenylsulfonyl)phthalazin-2(1H)-yl)methyl)benzamide] | – |

| Compound | EC50 | Emax | hPKM2 Emax |
| --- | --- | --- | --- |
| 2-(3-aminobenzyl)-6-((2-mathylthiazol-4-yl)sulfonyl)phthalazin-1(2H)-one [Example 151] | 36.5 nM | – | 92.52% |
| COc1ccc(Cn2ncc3cc(S(=N)(=O)c4ccccc4)ccc3c2=O)cn1 (racemic) [Example 131, 2-((6-methoxypyridin-3-yl)methyl)-6-(phenylsulfonimidoyl)phthalazin-1(2H)-one] | 300 nM | 99.7% | – |
| Cc1cn(CCO)nc1Cn1ncc2cc(S(=O)(=O)c3ccccc3)ccc2c1=O [Example 16, 2-((1-(2-hydroxyethyl)-4-methyl-1H-pyrazol-3-yl)methyl)-6-(phenylsulfonyl)phthalazin-1(2H)-one] | 154 nM | 92.6% | – |
